{"source": "paper PMC9812224", "about": "“Analysis of the conformational heterogeneity of the Rieske iron–sulfur protein in complex III2 by cryo-EM” (IUCrJ, 2023)", "target": "T1, CIII2 (respiratory complex III dimer, cytochrome bc1 complex) (Yarrowia lipolytica, UniProt Q9B6D0)", "T1 construct": "gene COB; native homodimeric complex from DDM-solubilized mitochondrial membranes after depletion of His-tagged complex I; untagged; ion exchange and size exclusion; with Cytochrome c1, heme protein, mitochondrial; Cytochrome b-c1 complex subunit 1, mitochondrial; Cytochrome b-c1 complex subunit 2, mitochondrial; Cytochrome b-c1 complex subunit 6; Cytochrome b-c1 complex subunit 7; Cytochrome b-c1 complex subunit 8; Cytochrome b-c1 complex subunit 9; Cytochrome b-c1 complex subunit 10", "T1 sequence (Q9B6D0 1-385)": "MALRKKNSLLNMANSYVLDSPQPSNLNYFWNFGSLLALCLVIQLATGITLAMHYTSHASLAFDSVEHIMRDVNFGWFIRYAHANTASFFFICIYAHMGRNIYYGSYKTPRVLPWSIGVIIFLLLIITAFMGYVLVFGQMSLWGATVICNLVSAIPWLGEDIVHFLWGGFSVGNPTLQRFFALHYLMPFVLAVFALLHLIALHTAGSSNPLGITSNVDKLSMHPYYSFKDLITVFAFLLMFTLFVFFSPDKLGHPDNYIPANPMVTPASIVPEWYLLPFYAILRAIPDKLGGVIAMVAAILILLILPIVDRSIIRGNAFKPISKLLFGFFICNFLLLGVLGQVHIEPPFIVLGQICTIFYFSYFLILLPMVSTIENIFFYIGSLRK", "experiment": "cryo-EM structure", "format": "binding", "details": "pH 8.0"}
{"smiles": "CCCCCCCCCCC1=C(C)C(=O)C(OC)=C(OC)C1=O", "note": "[decylubiquinone]", "values": [{"measurement": "cryo-EM structure", "setting": "Qo site, possible low occupancy, 330 µM with 25 mM sodium ascorbate, quinone analogue", "value": "density in the Qo site increased, indicating a possible low occupancy of DQ"}]}
{"smiles": "O=C1C(O)=C([C@H]2CC[C@H](c3ccc(Cl)cc3)CC2)C(=O)c2ccccc21", "note": "[atovaquone]", "values": [{"measurement": "cryo-EM structure", "setting": "Qo site (cyt b; hydrogen bond to His190 of Rip1), with antimycin A, 120 µM", "value": "Atovaquone was resolved in the Qo site in the +atovaquone+antimycin A sample"}]}
{"smiles": "CCCCCCCCCCc1c(C)c(O)c(OC)c(OC)c1O", "note": "[decylubiquinol]", "values": [{"measurement": "cryo-EM structure", "setting": "Qi site (cyt b only), 1 mM, substrate analogue", "value": "After its addition, decylubiquinol was resolved in the Qi site"}]}
